In PubChem BioAssay AID206 (DTP/NCI, 2004):
Inconclusive results are not listed.

System: nude mice, HT29 intrarenal xenograft, tumor weight T/C
Assay: NCI In Vivo Anticancer Drug Screen. Data for tumor model HT29;CX-1 Human Adenocarcinoma (MER+) (intrarenal inoculation) in NU/NU Swiss (nude) mice
Conditions: endpoint: mean tumor weight change, higher = larger tumour
Outline: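 Mice with transplanted tumors are dosed with compound while controls get vehicle only. Survival or tumor burden is then assessed per group, and the treated value is expressed relative to control.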

[1] = dose: 1.5 mg/kg/injection, schedule: Q04DX004 (sc), vehicle: saline
[2] = dose: 150.0 mg/kg/injection, schedule: Q04DX004 (sc), vehicle: saline with Tween-80
[3] = dose: 300.0 mg/kg/injection, schedule: Q04DX004 (sc), vehicle: saline with Tween-80
[4] = dose: 600.0 mg/kg/injection, schedule: Q04DX004 (sc), vehicle: saline with Tween-80
[5] = dose: 1200.0 mg/kg/injection, schedule: Q04DX004 (sc), vehicle: saline with Tween-80
[6] = dose: 50.0 mg/kg/injection, schedule: Q04DX004 (sc), vehicle: saline with Tween-80
[7] = dose: 100.0 mg/kg/injection, schedule: Q04DX004 (sc), vehicle: saline with Tween-80
[8] = dose: 200.0 mg/kg/injection, schedule: Q04DX004 (sc), vehicle: saline with Tween-80
[9] = dose: 400.0 mg/kg/injection, schedule: Q04DX004 (sc), vehicle: saline with Tween-80
[10] = dose: 50.0 mg/kg/injection, schedule: Q01DX010 (sc), vehicle: saline with Tween-80
[11] = dose: 100.0 mg/kg/injection, schedule: Q01DX010 (sc), vehicle: saline with Tween-80

COc1cc2cc(c1Cl)N(C)C(=O)CC(OC(=O)C(C)C)C1(C)OC1C(C)C1CC(O)(NC(=O)O1)C(OC)/C=C/C=C(C)C2 (centres undefined)
T/C (dose: 12.5 micrograms/kg/injection, schedule: Q04DX004 (sc), vehicle: saline + alcohol): 74 % of control | T/C (dose: 25.0 micrograms/kg/injection, schedule: Q04DX004 (sc), vehicle: saline + alcohol): 155 % of control | T/C (dose: 50.0 micrograms/kg/injection, schedule: Q04DX004 (sc), vehicle: saline + alcohol): 165 % of control | T/C (dose: 100.0 micrograms/kg/injection, schedule: Q04DX004 (sc), vehicle: saline + alcohol): 31 % of control | T/C (dose: 500.0 micrograms/kg/injection, schedule: Q04DX004 (sc), vehicle: saline + alcohol): 5 % of control

O=C1C(NCCO)=C(N2CC2)C(=O)C(NCCO)=C1N1CC1
T/C (dose: 0.5 mg/kg/injection, schedule: Q04DX004 (sc), vehicle: saline): 76 % of control | T/C (dose: 1.0 mg/kg/injection, schedule: Q04DX004 (sc), vehicle: saline): 12 % of control | T/C [1]: 86 % of control | T/C (dose: 2.0 mg/kg/injection, schedule: Q04DX004 (sc), vehicle: saline): 21 % of control | T/C (dose: 3.0 mg/kg/injection, schedule: Q04DX004 (sc), vehicle: saline): 82 % of control

COC(=Nc1ccccc1)SSC(C)C
T/C [2]: 104 % of control | T/C [3]: 118 % of control | T/C [4]: 117 % of control | T/C [5]: 117 % of control

O=C1CN(Cc2ccc3c(c2)OCO3)NO1
T/C [2]: 92 % of control | T/C [3]: 103 % of control

Nc1nnc[se]1
T/C [6]: 58 % of control | T/C [7]: 33 % of control | T/C [8]: 34 % of control | T/C [9]: 23 % of control

O=CC=O
T/C [10]: 64 % of control | T/C [11]: 66 % of control | T/C (dose: 200.0 mg/kg/injection, schedule: Q01DX010 (sc), vehicle: saline with Tween-80): 38 % of control

O=Cc1ccc([N+](=O)[O-])s1
T/C (dose: 25.0 mg/kg/injection, schedule: Q01DX010 (sc), vehicle: saline with Tween-80): 166 % of control | T/C [10]: 176 % of control | T/C [11]: 97 % of control

O=c1[nH]c(=O)n(C2CC(O)C(CO)O2)cc1Br (centres undefined)
T/C (dose: 600.0 mg/kg/injection, schedule: Q04DX004 (sc), vehicle: Klucel (hydroxypropylcellulose) (HPC)): 157 % of control | T/C (dose: 1200.0 mg/kg/injection, schedule: Q04DX004 (sc), vehicle: Klucel (hydroxypropylcellulose) (HPC)): 91 % of control | T/C (dose: 2400.0 mg/kg/injection, schedule: Q04DX004 (sc), vehicle: Klucel (hydroxypropylcellulose) (HPC)): 59 % of control

CO[C@H]1C[C@@H]2CC[C@@H](C)[C@@](O)(O2)C(=O)C(=O)N2CCCC[C@H]2C(=O)O[C@H]([C@H](C)C[C@@H]2CC[C@@H](O)[C@H](OC)C2)CC(=O)[C@H](C)C=C(C)[C@@H](O)[C@@H](OC)C(=O)[C@H](C)C[C@H](C)/C=C/C=C/C=C1C
T/C [10]: 28 % of control

O=C1c2ccccc2C(=O)c2c3c(cc(NCCNCCO)c21)N(CCO)CCN3
T/C (dose: 100.0 mg/kg/injection, schedule: Q04DX004 (sc), vehicle: DMSO): 168 % of control | T/C (dose: 200.0 mg/kg/injection, schedule: Q04DX004 (sc), vehicle: DMSO): 112 % of control | T/C (dose: 400.0 mg/kg/injection, schedule: Q04DX004 (sc), vehicle: DMSO): 59 % of control | T/C (dose: 800.0 mg/kg/injection, schedule: Q04DX004 (sc), vehicle: DMSO): 104 % of control

O=c1n(CC2CO2)c(=O)n(CC2CO2)n1CC1CO1 (centres undefined)
T/C (dose: 37.5 mg/kg/injection, schedule: Q04DX004 (sc), vehicle: suspension in saline): 76 % of control

c1cc[c]([Sn]([NH]c2ncnc3[nH]cnc23)([NH]c2ncnc3[nH]cnc23)[c]2ccccc2)cc1
T/C (dose: 150.0 mg/kg/injection, schedule: Q04DX004 (sc), vehicle: suspension in saline): 89 % of control | T/C (dose: 300.0 mg/kg/injection, schedule: Q04DX004 (sc), vehicle: suspension in saline): 47 % of control | T/C (dose: 600.0 mg/kg/injection, schedule: Q04DX004 (sc), vehicle: suspension in saline): 28 % of control | T/C (dose: 1200.0 mg/kg/injection, schedule: Q04DX004 (sc), vehicle: suspension in saline): 124 % of control

CC(=O)O[C@@H]1CO[C@H]2O[C@H]3[C@@H](C(C=O)=C[C@H](O)[C@@H]4C5=C(C(C)C)CC[C@]5(C)CC[C@@]34C)[C@@]2(O)C1=O
T/C (dose: 12.5 mg/kg/injection, schedule: Q04DX004 (sc), vehicle: Klucel (hydroxypropylcellulose) (HPC)): 110 % of control | T/C (dose: 25.0 mg/kg/injection, schedule: Q04DX004 (sc), vehicle: Klucel (hydroxypropylcellulose) (HPC)): 83 % of control | T/C (dose: 50.0 mg/kg/injection, schedule: Q04DX004 (sc), vehicle: Klucel (hydroxypropylcellulose) (HPC)): 76 % of control | T/C (dose: 100.0 mg/kg/injection, schedule: Q04DX004 (sc), vehicle: Klucel (hydroxypropylcellulose) (HPC)): 58 % of control

Cc1cc(N(CC(C)Br)CC(C)Br)ccc1N=Nc1ccccc1C(=O)O (centres undefined)
T/C (dose: 3.13 mg/kg/injection, schedule: Q01DX010 (sc), vehicle: saline with Tween-80): 69 % of control | T/C (dose: 6.25 mg/kg/injection, schedule: Q01DX010 (sc), vehicle: saline with Tween-80): 18 % of control | T/C (dose: 12.5 mg/kg/injection, schedule: Q01DX010 (sc), vehicle: saline with Tween-80): 14 % of control

O=S(=O)(O)O.[NH-]C1CCCCC1[NH-].[Pt+2] (centres undefined)
T/C (dose: 0.62 mg/kg/injection, schedule: Q01DX010 (sc), vehicle: dextrose): 21 % of control

CC[C@@]1(O)C[C@H](OC2CC(N(C)C)C(OC3CC(O)C(OC4CCC(=O)C(C)O4)C(C)O3)C(C)O2)c2c(cc3c(c2O)C(=O)c2c(O)ccc(O)c2C3=O)[C@H]1C(=O)OC (some centres undefined)
T/C (dose: 3.0 mg/kg/injection, schedule: Q04DX004 (sc), vehicle: water): 12 % of control | T/C (dose: 6.0 mg/kg/injection, schedule: Q04DX004 (sc), vehicle: water): -24 % of control

O=C(Nc1nncs1)c1cccs1
T/C [6]: 61 % of control | T/C [7]: 93 % of control | T/C [8]: 72 % of control | T/C [3]: 106 % of control | T/C [9]: 95 % of control | T/C [4]: 121 % of control | T/C [5]: 110 % of control

Cc1c(CNc2ccc(C(=O)NC(CC(=O)O)C(=O)O)cc2)ccc2nc(N)nc(N)c12 (centres undefined)
T/C (dose: 12.5 mg/kg/injection, schedule: Q04DX004 (sc), vehicle: saline with Tween-80): 41 % of control

COc1ccc(C(=O)C(CN(C)C)CN(C)C)cc1
T/C (dose: 12.5 mg/kg/injection, schedule: Q04DX004 (sc), vehicle: saline): 100 % of control | T/C (dose: 25.0 mg/kg/injection, schedule: Q04DX004 (sc), vehicle: saline): 38 % of control

NC(=O)c1cn(C2OC(CO)C(O)C2O)c2ncnc(N)c12 (centres undefined)
T/C (dose: 1.0 mg/kg/injection, schedule: Q01DX010 (sc), vehicle: saline): 115 % of control | T/C (dose: 2.0 mg/kg/injection, schedule: Q01DX010 (sc), vehicle: saline): 94 % of control

Oc1ccc(SCc2ccc(NCc3ccccc3)cc2)cc1
T/C (dose: 400.0 mg/kg/injection, schedule: Q01DX009 (sc), vehicle: saline with Tween-80): 50 % of control | T/C (dose: 500.0 mg/kg/injection, schedule: Q01DX010 (sc), vehicle: saline with Tween-80): 90 % of control | T/C (dose: 800.0 mg/kg/injection, schedule: Q01DX009 (sc), vehicle: saline with Tween-80): 84 % of control | T/C (dose: 1000.0 mg/kg/injection, schedule: Q01DX010 (sc), vehicle: saline with Tween-80): 84 % of control | T/C (dose: 1600.0 mg/kg/injection, schedule: Q01DX009 (sc), vehicle: saline with Tween-80): 49 % of control | T/C (dose: 2000.0 mg/kg/injection, schedule: Q01DX010 (sc), vehicle: saline with Tween-80): 54 % of control

COc1cc2c(c(OC)c1OC)-c1ccc(OC)c(=O)cc1[C@@H](NC(C)=O)CC2
T/C (dose: 0.5 mg/kg/injection, schedule: Q01DX010 (sc), vehicle: saline): 70 % of control

CCCCCC(=O)O[C@]1(C(C)=O)CC[C@H]2[C@@H]3CCC4=CC(=O)CC[C@]4(C)[C@H]3CC[C@@]21C
T/C (dose: 225.0 mg/kg/injection, schedule: Q04DX004 (sc), vehicle: Klucel (hydroxypropylcellulose) (HPC)): 73 % of control | T/C (dose: 450.0 mg/kg/injection, schedule: Q04DX004 (sc), vehicle: Klucel (hydroxypropylcellulose) (HPC)): 46 % of control | T/C (dose: 900.0 mg/kg/injection, schedule: Q04DX004 (sc), vehicle: Klucel (hydroxypropylcellulose) (HPC)): 58 % of control | T/C (dose: 1800.0 mg/kg/injection, schedule: Q04DX004 (sc), vehicle: Klucel (hydroxypropylcellulose) (HPC)): 36 % of control

CSCS(=O)C[C@H](CO)NC(=O)/C=C/c1c(C)[nH]c(=O)[nH]c1=O (some centres undefined)
T/C (dose: 0.75 mg/kg/injection, schedule: Q04DX004 (sc), vehicle: saline): 111 % of control | T/C [1]: 81 % of control
